Laboratory results as given in patent US20250230193A1, “CYCLIC COMPOUND HAVING SELECTIVE KRAS INHIBITORY EFFECT ON HRAS AND NRAS” (CHUGAI SEIYAKU KABUSHIKI KAISHA, priority 2022, published 2025).

Columns and labels:
[1] = molecular target: GDP-bound HRAS wild-type protein (Homo sapiens, UniProt P01112); assay: Binding to HRAS by surface plasmon resonance (SPR), Single Cycle Kinetics; conditions: SPR; KD ratio class
[2] = tested on: human lung cancer strain NCI-H441; assay: cells; conditions: NCI-H441, 96 h, read-out: NCI-H441 IC50 (nM)
[3] = molecular target: GDP-bound NRAS wild-type protein (Homo sapiens, UniProt P01111); assay: Binding to NRAS by surface plasmon resonance (SPR), Single Cycle Kinetics; conditions: SPR; KD ratio class
Chain of GDP-bound NRAS wild-type protein (P01111 whole entry): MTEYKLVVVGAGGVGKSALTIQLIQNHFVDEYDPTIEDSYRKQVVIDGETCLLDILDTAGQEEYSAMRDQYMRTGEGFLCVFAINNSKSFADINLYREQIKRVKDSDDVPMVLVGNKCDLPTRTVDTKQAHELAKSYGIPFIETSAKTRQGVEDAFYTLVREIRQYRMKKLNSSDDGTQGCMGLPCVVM

Chain of GDP-bound HRAS wild-type protein (P01112 whole entry): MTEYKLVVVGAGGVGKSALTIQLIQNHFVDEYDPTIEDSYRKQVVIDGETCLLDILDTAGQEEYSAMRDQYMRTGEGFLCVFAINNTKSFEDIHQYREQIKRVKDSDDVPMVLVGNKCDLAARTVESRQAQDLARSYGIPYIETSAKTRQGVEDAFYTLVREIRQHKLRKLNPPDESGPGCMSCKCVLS

Row | SMILES | HRAS/KRAS (ratio of KD value for GDP-bound HRAS wild-type protein to KD value for KRAS) [1] | IC50 [2] [nM] | NRAS/KRAS (ratio of KD value for GDP-bound NRAS wild-type protein to KD value for KRAS) [3]
1 | CCO[C@@H]1C[C@H]2C(=O)NC3(CCC3)C(=O)N(C)[C@@H](C3CCCC3)C(=O)N(C)[C@H](C(=O)N(C)C)CC(=O)N(C)[C@@H](CC3CC3)C(=O)N[C@@H]([C@@H](C)CC)C(=O)N(C)CC(=O)N(C)[C@H]3C/C=C\CCN(C3=O)[C@@H](Cc3ccc(F)cc3C)C(=O)N(C)CC(=O)N[C@@H](CCc3cc(F)c(Cl)c(F)c3)C(=O)N2C1 [PP1477] | B (a compound having 3 or more and less than 10 is denoted as B) | 309 | A (a compound having 10 or more and less than 20 is denoted as A)
2 | CCO[C@@H]1C[C@H]2C(=O)NC3(CCC3)C(=O)N(C)[C@@H](C3CCCC3)C(=O)N(C)[C@H](C(=O)N(C)C)CC(=O)N(C)[C@@H](CC3CC3)C(=O)N[C@@H]([C@@H](C)CC)C(=O)N(C)CC(=O)N(C)[C@H]3C/C=C\CCN(C3=O)[C@@H](Cc3ccc(F)cc3)C(=O)N(C)CC(=O)N[C@@H](CCc3ccc(Cl)c(Cl)c3)C(=O)N2C1 [PP1478] | A (a compound having 10 or more and less than 20 is denoted as A) | 102 | A (a compound having 10 or more and less than 20 is denoted as A)
3 | CCO[C@@H]1C[C@H]2C(=O)NC3(CCC3)C(=O)N(C)[C@@H](C3CCCC3)C(=O)N(C)[C@H](C(=O)N(C)C)CC(=O)N(C)[C@@H](CC3CC3)C(=O)N[C@@H]([C@@H](C)CC)C(=O)N(C)CC(=O)N(C)[C@H]3C/C=C\CCN(C3=O)[C@@H](Cc3ccc(F)cc3)C(=O)N(C)CC(=O)N[C@@H](CCc3cc(F)c(Cl)c(F)c3)C(=O)N2C1 [PP1479] | B (a compound having 3 or more and less than 10 is denoted as B) | 140 | A (a compound having 10 or more and less than 20 is denoted as A)
4 | CCO[C@@H]1C[C@H]2C(=O)NC3(CCC3)C(=O)N(C)[C@@H](C3CCCC3)C(=O)N(C)[C@H](C(=O)N(C)C)CC(=O)N(C)[C@@H](CC(C)C)C(=O)N[C@@H]([C@@H](C)CC)C(=O)N(C)CC(=O)N(C)[C@H]3C/C=C\CCN(C3=O)[C@@H](Cc3ccc(F)cc3C)C(=O)N(C)CC(=O)N[C@@H](CCc3ccc(Cl)c(Cl)c3)C(=O)N2C1 [PP1480] | B (a compound having 3 or more and less than 10 is denoted as B) | 85.8 | A (a compound having 10 or more and less than 20 is denoted as A)
5 | CCO[C@@H]1C[C@H]2C(=O)NC3(CCC3)C(=O)N(C)[C@@H](C3CCCC3)C(=O)N(C)[C@H](C(=O)N(C)C)CC(=O)N(C)[C@@H](CC(C)C)C(=O)N[C@@H]([C@@H](C)CC)C(=O)N(C)CC(=O)N(C)[C@H]3C/C=C\CCN(C3=O)[C@@H](Cc3ccc(F)cc3C)C(=O)N(C)CC(=O)N[C@@H](CCc3cc(F)c(Cl)c(F)c3)C(=O)N2C1 [PP1481] | B (a compound having 3 or more and less than 10 is denoted as B) | 14.8 | A (a compound having 10 or more and less than 20 is denoted as A)
6 | CCO[C@@H]1C[C@H]2C(=O)NC3(CCC3)C(=O)N(C)[C@@H](C3CCCC3)C(=O)N(C)[C@H](C(=O)N(C)C)CC(=O)N(C)[C@@H](CC(C)C)C(=O)N[C@@H]([C@@H](C)CC)C(=O)N(C)CC(=O)N(C)[C@H]3C/C=C\CCN(C3=O)[C@@H](Cc3ccc(F)cc3)C(=O)N(C)CC(=O)N[C@@H](CCc3ccc(Cl)c(Cl)c3)C(=O)N2C1 [PP1482] | B (a compound having 3 or more and less than 10 is denoted as B) | 76.4 | A (a compound having 10 or more and less than 20 is denoted as A)
7 | CCO[C@@H]1C[C@H]2C(=O)NC3(CCC3)C(=O)N(C)[C@@H](C3CCCC3)C(=O)N(C)[C@H](C(=O)N(C)C)CC(=O)N(C)[C@@H](CC(C)C)C(=O)N[C@@H]([C@@H](C)CC)C(=O)N(C)CC(=O)N(C)[C@H]3C/C=C\CCN(C3=O)[C@@H](Cc3ccc(F)cc3)C(=O)N(C)CC(=O)N[C@@H](CCc3cc(F)c(Cl)c(F)c3)C(=O)N2C1 [PP1483] | B (a compound having 3 or more and less than 10 is denoted as B) | 90.3 | A (a compound having 10 or more and less than 20 is denoted as A)
8 | CCO[C@@H]1C[C@H]2C(=O)NC3(CCC3)C(=O)N(C)[C@@H](C3CCCC3)C(=O)N(C)[C@H](C(=O)N(C)C)CC(=O)N(C)[C@@H](CC3CC3)C(=O)N[C@@H]([C@@H](C)CC)C(=O)N(C)CC(=O)N(C)[C@H]3C/C=C\CCN(C3=O)[C@@H](Cc3ccc(C)cc3)C(=O)N(C)CC(=O)N[C@@H](CCc3cc(F)c(Cl)c(F)c3)C(=O)N2C1 [PP1484] | A (a compound having 10 or more and less than 20 is denoted as A) | 59.3 | A (a compound having 10 or more and less than 20 is denoted as A)
9 | CCO[C@@H]1C[C@H]2C(=O)NC3(CCC3)C(=O)N(C)[C@@H](C3CCCC3)C(=O)N(C)[C@H](C(=O)N(C)C)CC(=O)N(C)[C@@H](CC3CC3)C(=O)N[C@@H]([C@@H](C)CC)C(=O)N(C)CC(=O)N(C)[C@H]3C/C=C\CCN(C3=O)[C@@H](Cc3ccc(C)cc3)C(=O)N(C)CC(=O)N[C@@H](CCc3ccc(Cl)c(Cl)c3)C(=O)N2C1 [PP1485] | A (a compound having 10 or more and less than 20 is denoted as A) | 30.5 | A (a compound having 10 or more and less than 20 is denoted as A)
10 | CCO[C@@H]1C[C@H]2C(=O)NC3(CCC3)C(=O)N(C)[C@@H](C3CCCC3)C(=O)N(C)[C@H](C(=O)N(C)C)CC(=O)N(C)[C@@H](CC3CCCC3)C(=O)N[C@@H]([C@@H](C)CC)C(=O)N(C)CC(=O)N(C)[C@H]3C/C=C\CCN(C3=O)[C@@H](Cc3ccc(C)cc3)C(=O)N(C)CC(=O)N[C@@H](CCc3cc(F)c(Cl)c(F)c3)C(=O)N2C1 [PP1486] | A (a compound having 10 or more and less than 20 is denoted as A) | 15 | A (a compound having 10 or more and less than 20 is denoted as A)
11 | CCO[C@@H]1C[C@H]2C(=O)NC3(CCC3)C(=O)N(C)[C@@H](C3CCCC3)C(=O)N(C)[C@H](C(=O)N(C)C)CC(=O)N(C)[C@@H](CC3CCCC3)C(=O)N[C@@H]([C@@H](C)CC)C(=O)N(C)CC(=O)N(C)[C@H]3C/C=C\CCN(C3=O)[C@@H](Cc3ccc(C)cc3)C(=O)N(C)CC(=O)N[C@@H](CCc3ccc(Cl)c(Cl)c3)C(=O)N2C1 [PP1487] | A (a compound having 10 or more and less than 20 is denoted as A) | 46.6 | A (a compound having 10 or more and less than 20 is denoted as A)
